Tests used:
[1] = biological target: T1, EGFR (Homo sapiens, UniProt P00533); experiment: EGFR ELISA assay (in vitro kinase activity, EGFR captured from A431 cell lysate); format: biochemical; parameters: concentration or dose not given beside the values
T1 construct: Add 7 ug A431 cell lysate per well (EGFR source); endogenous in cells; host or cells: A431
In short: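 Receptor autophosphorylation was read by ELISA: anti-phosphotyrosine serum and an HRP-linked secondary with ABTS substrate, absorbance at 410 nm (reference 630 nm). The reaction ran 5 min with 3 µM ATP and 5 mM MnCl2 and was quenched by 20 mM EDTA. Compounds were first incubated 30 min with antibody-captured EGFR from A431 cell lysate.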

[2] = biological target: PDGF-R (Homo sapiens, UniProt P09619); experiment: PDGF-R ELISA; format: cell-based
Sequence of PDGF-R (P09619 33-1106, species assumed): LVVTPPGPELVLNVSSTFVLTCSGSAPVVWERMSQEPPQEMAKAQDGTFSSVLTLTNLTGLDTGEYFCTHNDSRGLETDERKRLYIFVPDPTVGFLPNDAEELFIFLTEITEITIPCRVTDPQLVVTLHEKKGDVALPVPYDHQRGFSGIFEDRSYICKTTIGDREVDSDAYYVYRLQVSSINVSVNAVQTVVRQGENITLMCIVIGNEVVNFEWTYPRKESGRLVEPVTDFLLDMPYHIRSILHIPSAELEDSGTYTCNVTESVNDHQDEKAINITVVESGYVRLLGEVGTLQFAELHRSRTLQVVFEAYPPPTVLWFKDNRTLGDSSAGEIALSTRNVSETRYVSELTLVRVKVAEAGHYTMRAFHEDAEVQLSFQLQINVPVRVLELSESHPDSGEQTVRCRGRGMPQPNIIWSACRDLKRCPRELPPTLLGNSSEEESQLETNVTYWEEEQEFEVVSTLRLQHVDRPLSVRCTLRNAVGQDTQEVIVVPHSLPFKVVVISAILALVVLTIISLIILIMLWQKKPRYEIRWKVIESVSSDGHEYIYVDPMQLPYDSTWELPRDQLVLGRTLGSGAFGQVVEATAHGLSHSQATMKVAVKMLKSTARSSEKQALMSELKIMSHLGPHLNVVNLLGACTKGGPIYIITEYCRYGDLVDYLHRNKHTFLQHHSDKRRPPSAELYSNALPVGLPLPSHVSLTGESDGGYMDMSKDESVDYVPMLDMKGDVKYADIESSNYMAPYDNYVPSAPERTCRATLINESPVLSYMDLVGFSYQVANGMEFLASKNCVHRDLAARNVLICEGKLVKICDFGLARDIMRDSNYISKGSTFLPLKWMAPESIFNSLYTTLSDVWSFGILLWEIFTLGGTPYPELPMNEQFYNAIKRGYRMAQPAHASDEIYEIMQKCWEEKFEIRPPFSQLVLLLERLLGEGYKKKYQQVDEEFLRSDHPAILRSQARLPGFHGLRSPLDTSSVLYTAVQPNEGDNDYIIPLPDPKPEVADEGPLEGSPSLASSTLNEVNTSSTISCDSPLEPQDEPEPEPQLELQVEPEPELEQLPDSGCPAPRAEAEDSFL
From the text: A PDGF-R ELISA is described in International Patent Publication No. WO 96/40116, published December 19, 1996 by Tang et al.

T1 sequence (P00533 25-1210): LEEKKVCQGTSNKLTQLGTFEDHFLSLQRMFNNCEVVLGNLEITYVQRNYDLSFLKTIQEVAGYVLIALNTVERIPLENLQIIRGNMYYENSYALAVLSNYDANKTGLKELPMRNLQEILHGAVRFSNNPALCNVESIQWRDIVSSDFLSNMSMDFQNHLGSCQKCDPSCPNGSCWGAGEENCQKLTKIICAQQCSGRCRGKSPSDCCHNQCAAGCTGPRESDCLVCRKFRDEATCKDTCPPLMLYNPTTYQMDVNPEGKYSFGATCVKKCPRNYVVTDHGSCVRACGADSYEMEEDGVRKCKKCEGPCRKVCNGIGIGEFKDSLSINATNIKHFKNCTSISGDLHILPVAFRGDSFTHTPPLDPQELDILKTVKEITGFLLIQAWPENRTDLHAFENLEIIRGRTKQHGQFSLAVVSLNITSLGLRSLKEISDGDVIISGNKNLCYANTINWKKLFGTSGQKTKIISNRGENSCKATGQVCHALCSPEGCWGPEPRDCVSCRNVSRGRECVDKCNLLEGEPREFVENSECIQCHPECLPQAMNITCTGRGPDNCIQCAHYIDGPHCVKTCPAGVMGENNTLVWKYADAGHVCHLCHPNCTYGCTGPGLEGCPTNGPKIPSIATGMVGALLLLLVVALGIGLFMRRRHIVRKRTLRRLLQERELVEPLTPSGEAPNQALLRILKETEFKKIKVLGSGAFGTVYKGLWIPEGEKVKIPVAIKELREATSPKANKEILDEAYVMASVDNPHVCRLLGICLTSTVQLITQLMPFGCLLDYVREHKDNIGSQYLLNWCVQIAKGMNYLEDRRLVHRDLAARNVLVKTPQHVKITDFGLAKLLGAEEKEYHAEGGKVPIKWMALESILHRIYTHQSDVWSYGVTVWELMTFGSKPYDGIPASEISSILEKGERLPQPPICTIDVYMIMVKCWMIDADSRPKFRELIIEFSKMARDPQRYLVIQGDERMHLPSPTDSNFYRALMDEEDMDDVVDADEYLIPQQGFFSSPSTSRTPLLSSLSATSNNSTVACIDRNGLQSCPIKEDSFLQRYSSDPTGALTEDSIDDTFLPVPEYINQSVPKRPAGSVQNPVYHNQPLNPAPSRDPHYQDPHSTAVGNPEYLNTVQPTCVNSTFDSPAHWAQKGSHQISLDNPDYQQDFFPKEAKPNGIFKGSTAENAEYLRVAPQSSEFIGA

Row | Compound | Biochem EGFR %Inhibition [1] [%] | PDGF Kinase %Inhibition [2]
1 | CCOC(=O)CCc1c(C(=O)OCC)[nH]c(C=C2C(=O)Nc3c(Br)cc(Br)cc32)c1CC(=O)OCC [10718/A05] | -6.9 | 
2 | Cc1c(Br)ccc2c1C(=Cc1cc(C(F)(F)F)ccc1F)C(=O)N2 [10728/C08] | 17.5 | 9.4%
3 | COc1cc(C=C2C(=O)Nc3c(Br)cc(Br)cc32)cc2c1OCO2 [10728/A11] | -0.6 | -9.3%
4 | O=C1Nc2c(Br)cc(Br)cc2C1=Cc1ccc2ccccc2c1O [10718/A04] | 27.3 | 
5 | CNS(=O)(=O)c1ccc2c(c1)C(=Cc1ccc3c(c1)Cc1ccccc1-3)C(=O)N2 [10728/D06] | 5.8 | 5.8%
6 | CCc1cc(CC)c(C=C2C(=O)Nc3ccc(S(=O)(=O)N4CCOCC4)cc32)[nH]1 [10727/F03] | 36.8 | -3.7%
7 | O=C1Nc2ccc(CCCl)cc2C1=Cc1cc(Cl)cc(Br)c1O [10727/G04] | 80.6 | -27.0%
8 | CNS(=O)(=O)c1ccc2c(c1)C(=Cc1ccc(N(C)C)cc1OC)C(=O)N2 [10728/D05] | 12.7 | 7.2%
9 | CNS(=O)(=O)c1ccc2c(c1)C(=Cc1c(OC)cccc1OC)C(=O)N2 [10728/D03] | 10.8 | 32.0%
10 | Cc1c(Br)ccc2c1C(=Cc1c(F)cccc1C(F)(F)F)C(=O)N2 [10728/C09] | -6.8 | 8.1%
11 | COc1cc(Br)c(O)c(C=C2C(=O)Nc3c(Br)cc(Br)cc32)c1 [10718/A03] | -6.1 | 
12 | COc1cc(N(C)C)ccc1C=C1C(=O)Nc2ccc(I)cc21 [10728/B05] | 26.9 | 9.4%
13 | Cc1c(Br)ccc2c1C(=Cc1ccccc1OCC(=O)O)C(=O)N2 [10728/C10] | 4.4 | 11.2%
14 | O=C1Nc2ccc(I)cc2C1=Cc1cc(C(F)(F)F)ccc1F [10728/B08] | 34.7 | -6.6%
15 | CCc1cc(CC)c(C=C2C(=O)Nc3ccc(S(=O)(=O)Nc4ccc(C(F)(F)F)cc4)cc32)[nH]1 [10727/E03] | 35.5 | 5.7%
16 | COc1ccc(OC)c(C=C2C(=O)Nc3c(Br)cc(Br)cc32)c1 [10728/A02] | 9.2 | -7.9%

Row | Compound | Biochem EGFR %Inhibition [1] [%] | PDGF Kinase %Inhibition [2]
17 | O=C(O)COc1ccccc1C=C1C(=O)Nc2c(Br)cc(Br)cc21 [10728/A10] | -3.4 | 1.8%
18 | CCN(CC)c1ccc(C=C2C(=O)Nc3ccc(CCCl)cc32)cc1 [10727/G02] | 37.5 | -20.5%
19 | CNS(=O)(=O)c1ccc2c(c1)C(=Cc1cc(OC)ccc1OC)C(=O)N2 [10728/D02] | 9.9 | 9.8%
20 | COc1cc(C=C2C(=O)Nc3ccc(Br)c(C)c32)cc2c1OCO2 [10728/C11] | 21.8 | 8.5%
21 | COc1cc(N(C)C)ccc1C=C1C(=O)Nc2ccc(Br)c(C)c21 [10728/C05] | 16.1 | 23.2%
22 | COc1ccc(OC)c(C=C2C(=O)Nc3ccc(I)cc32)c1 [10728/B02] | -10.5 | -0.4%
23 | O=C1Nc2ccc(S(=O)(=O)Nc3ccc(C(F)(F)F)cc3)cc2C1=Cc1cc(Cl)cc(Br)c1O [10727/E04] | 82.1 | -7.4%
24 | Cc1[nH]c(C=C2C(=O)Nc3ccc(CCCl)cc32)c(Br)c1Br [10717/G11] | 71.7 | 
25 | O=C1Nc2c(Br)cc(Br)cc2C1=Cc1c(F)cccc1C(F)(F)F [10728/A09] | 19.3 | 10.3%
26 | O=C1Nc2ccc(S(=O)(=O)Nc3ccc(C(F)(F)F)cc3)cc2C1=Cc1ccccc1Sc1ccc(Cl)cc1 [10727/E05] | 12.9 | -7.4%
27 | N#Cc1ccc(C=C2C(=O)Nc3ccc(CCCl)cc32)cc1 [10727/G09] | -9.7 | 10.8%
28 | CCN(CC)c1ccc(C=C2C(=O)Nc3ccc(S(=O)(=O)N4CCOCC4)cc32)cc1 [10727/F02] | -0.5 | 11.5%
29 | O=C1Nc2ccc(I)cc2C1=Cc1cccc(C(F)(F)F)c1F [10728/B07] | 11.1 | 20.9%
30 | CNS(=O)(=O)c1ccc2c(c1)C(=Cc1cccc(C#N)c1)C(=O)N2 [10727/D08] | -0.5 | 5.0 ! %
31 | COC(=O)c1[nH]c(C)c(C=C2C(=O)Nc3c(Br)cc(Br)cc32)c1C(=O)OC [10718/A07] | -10.6 | 
